Experimental data reported in article PMC2248166, “Quantitative peptide binding motifs for 19 human and mouse MHC class I molecules derived using positional scanning combinatorial peptide libraries” (Immunome Research, 2008).
Where a SMILES comes first, the peptide text is derived from it.

target: HLA B*0801 (Homo sapiens, UniProt P01889, A93T/A95T/D138N/E176V/E187T/K202T/Q94N/R180D/S35A/V36M/Y33D/Y91F); assay: biochemical; type: binding

Structure (SMILES) | IC50 [nM]
CC[C@H](C)[C@H](NC(=O)CNC(=O)[C@H](Cc1c[nH]cn1)NC(=O)[C@H](CCCNC(=N)N)NC(=O)[C@H](CCC(N)=O)NC(=O)[C@H](CC(C)C)NC(=O)[C@H](CCCCN)NC(=O)[C@@H](N)CO)C(=O)N[C@@H](CC(C)C)C(=O)O [3102.0549] (H-SKLQRHGIL-OH) | 16
N=C(N)NCCC[C@H](NC(=O)[C@H](CCCNC(=N)N)NC(=O)[C@@H](N)CC(=O)O)C(=O)N[C@@H](CO)C(=O)N[C@@H](Cc1ccccc1)C(=O)N[C@@H](Cc1ccccc1)C(=O)N[C@@H](CCCCN)C(=O)N[C@@H](CS)C(=O)N[C@@H](Cc1ccccc1)C(=O)O [3102.0758] (H-DRRSFFKCF-OH) | 76
CSCC[C@H](NC(=O)[C@H](CC(N)=O)NC(=O)[C@H](Cc1ccccc1)NC(=O)[C@H](Cc1ccccc1)NC(=O)[C@H](CCCNC(=N)N)NC(=O)[C@H](CO)NC(=O)[C@H](CC(C)C)NC(=O)[C@H](CC(C)C)NC(=O)[C@H](C)N)C(=O)O [3102.0744] (H-ALLSRFFNM-OH) | 3
CC(C)C[C@H](NC(=O)[C@H](Cc1ccccc1)NC(=O)[C@H](C)NC(=O)[C@H](Cc1ccccc1)NC(=O)[C@H](CCCNC(=N)N)NC(=O)[C@H](Cc1ccc(O)cc1)NC(=O)[C@H](CCCNC(=N)N)NC(=O)[C@H](CC(N)=O)NC(=O)[C@@H](N)CC(N)=O)C(=O)O [3102.0568] (H-NNRYRFAFL-OH) | 31
CSCC[C@H](NC(=O)[C@H](CCCCN)NC(=O)[C@@H](N)CCC(=O)O)C(=O)N[C@@H](CCCNC(=N)N)C(=O)N[C@@H](CCCNC(=N)N)C(=O)N[C@@H](CCC(=O)O)C(=O)N[C@@H](CCCNC(=N)N)C(=O)N[C@@H](C)C(=O)N[C@@H](C)C(=O)O [3102.0739] (H-EKMRRERAA-OH) | 1.8
CC(C)C[C@H](NC(=O)[C@@H](N)Cc1c[nH]cn1)C(=O)N[C@@H](CCCCN)C(=O)N[C@@H](Cc1c[nH]cn1)C(=O)N[C@@H](Cc1c[nH]cn1)C(=O)N[C@@H](CCCCN)C(=O)N[C@@H](CCC(N)=O)C(=O)N[C@@H](CS)C(=O)N[C@H](C(=O)O)C(C)C [3102.0763] (H-HLKHHKQCV-OH) | 4.5
CC[C@H](C)[C@H](NC(=O)[C@H](CCCNC(=N)N)NC(=O)[C@H](CO)NC(=O)[C@H](CCCNC(=N)N)NC(=O)[C@H](CC(C)C)NC(=O)[C@H](C)N)C(=O)N[C@@H](CCCNC(=N)N)C(=O)N[C@@H](CCC(=O)O)C(=O)N[C@@H](CC(C)C)C(=O)O [3102.0743] (H-ALRSRIREL-OH) | 0.46
CC(C)C[C@H](NC(=O)[C@H](CO)NC(=O)[C@H](C)NC(=O)[C@H](Cc1ccccc1)NC(=O)[C@H](CCCCN)NC(=O)[C@H](C)NC(=O)[C@H](Cc1ccc(O)cc1)NC(=O)[C@@H](NC(=O)[C@@H](N)[C@@H](C)O)C(C)C)C(=O)O [3102.0754] (H-TVYAKFASL-OH) | 1.6
CC(C)[C@H](NC(=O)[C@H](Cc1ccc(O)cc1)NC(=O)[C@H](CCCNC(=N)N)NC(=O)[C@H](Cc1ccccc1)NC(=O)[C@H](CS)NC(=O)[C@H](CCCCN)NC(=O)[C@H](Cc1ccccc1)NC(=O)[C@@H](N)Cc1ccccc1)C(=O)N[C@@H](Cc1ccccc1)C(=O)O [3102.0760] (H-FFKCFRYVF-OH) | 11
CSCC[C@H](NC(=O)[C@H](Cc1ccccc1)NC(=O)[C@@H](N)CC(C)C)C(=O)N[C@@H](CO)C(=O)N[C@@H](Cc1c[nH]cn1)C(=O)N[C@H](C(=O)N[C@@H](CCCCN)C(=O)N[C@@H](CO)C(=O)N[C@H](C(=O)O)C(C)C)C(C)C [3102.0716] (H-LFMSHVKSV-OH) | 3.1
CC[C@H](C)[C@H](NC(=O)[C@@H]1CCCN1C(=O)[C@H](CCCNC(=N)N)NC(=O)[C@H](CCCNC(=N)N)NC(=O)[C@H](CCC(=O)O)NC(=O)[C@H](CCCCN)NC(=O)[C@H](CCSC)NC(=O)[C@@H](N)[C@@H](C)O)C(=O)N[C@@H](CC(C)C)C(=O)O [3102.0600] (H-TMKERRPIL-OH) | 1.8
CC[C@H](C)[C@H](NC(=O)[C@@H](NC(=O)[C@H](CCC(N)=O)NC(=O)[C@H](CCCNC(=N)N)NC(=O)[C@H](CCCCN)NC(=O)[C@H](Cc1ccccc1)NC(=O)[C@H](CO)NC(=O)[C@@H]1CCCN1C(=O)[C@@H](N)CC(N)=O)[C@@H](C)CC)C(=O)O [3102.0704] (H-NPSFKRQII-OH) | 20
CC[C@H](C)[C@H](NC(=O)[C@H](CCC(=O)O)NC(=O)[C@H](CCSC)NC(=O)[C@H](CCCNC(=N)N)NC(=O)[C@@H](N)CC(N)=O)C(=O)N[C@@H](Cc1ccccc1)C(=O)N[C@@H](CC(C)C)C(=O)N[C@H](C(=O)N[C@@H](CC(C)C)C(=O)O)C(C)C [3102.0723] (H-NRMEIFLVL-OH) | 4.9
CC[C@H](C)[C@H](NC(=O)[C@H](CC(C)C)NC(=O)[C@H](Cc1c[nH]cn1)NC(=O)[C@H](CCCCN)NC(=O)[C@H](Cc1ccc(O)cc1)NC(=O)[C@@H](NC(=O)[C@@H]1CCCN1C(=O)[C@@H](N)CCSC)[C@@H](C)O)C(=O)N[C@@H](CCSC)C(=O)O [3102.0727] (H-MPTYKHLIM-OH) | 0.13
CC[C@H](C)[C@H](NC(=O)[C@H](Cc1ccc(O)cc1)NC(=O)[C@H](C)NC(=O)[C@H](Cc1ccccc1)NC(=O)[C@H](Cc1ccc(O)cc1)NC(=O)[C@H](Cc1ccc(O)cc1)NC(=O)[C@H](CCCNC(=N)N)NC(=O)[C@H](CCC(=O)O)NC(=O)CN)C(=O)O [3102.0936] (H-GERYYFAYI-OH) | 6.9
CC(C)[C@H](NC(=O)[C@H](CC(N)=O)NC(=O)[C@H](C)NC(=O)[C@H](Cc1ccccc1)NC(=O)[C@H](CCCCN)NC(=O)[C@H](CCCCN)NC(=O)[C@H](Cc1c[nH]cn1)NC(=O)[C@H](CCCNC(=N)N)NC(=O)[C@@H](N)CC(N)=O)C(=O)O [3102.0572] (H-NRHKKFANV-OH) | 36
CC[C@H](C)[C@H](NC(=O)[C@@H](N)Cc1ccccc1)C(=O)N[C@@H](C)C(=O)N[C@@H](CCCCN)C(=O)N[C@@H](Cc1c[nH]cn1)C(=O)N[C@@H](Cc1ccccc1)C(=O)N[C@@H](CC(C)C)C(=O)N[C@@H](CCC(=O)O)C(=O)N[C@@H](CC(C)C)C(=O)O [3102.0900] (H-FIAKHFLEL-OH) | 1.3
CC[C@H](C)[C@H](NC(=O)[C@H](C)NC(=O)[C@H](CC(C)C)NC(=O)[C@@H](NC(=O)[C@H](CCCCN)NC(=O)[C@H](CCCNC(=N)N)NC(=O)[C@H](CCCCN)NC(=O)[C@H](CC(N)=O)NC(=O)[C@@H](N)CO)C(C)C)C(=O)O [3102.0561] (H-SNKRKVLAI-OH) | 1.9
CC(C)C[C@H](NC(=O)[C@H](CS)NC(=O)[C@H](CCC(=O)O)NC(=O)[C@H](CCCCN)NC(=O)[C@H](Cc1c[nH]cn1)NC(=O)[C@H](CC(C)C)NC(=O)[C@H](CCCNC(=N)N)NC(=O)[C@H](CC(N)=O)NC(=O)[C@@H](N)CCC(=O)O)C(=O)O [3102.0562] (H-ENRLHKECL-OH) | 73
CSCC[C@H](NC(=O)[C@H](Cc1ccccc1)NC(=O)[C@H](CCSC)NC(=O)[C@@H](N)CO)C(=O)N[C@@H](CO)C(=O)N[C@@H](CC(C)C)C(=O)N[C@@H](CC(C)C)C(=O)N1CCC[C@H]1C(=O)N[C@@H](C)C(=O)O [3102.0656] (H-SMFMSLLPA-OH) | 56
CC[C@H](C)[C@H](NC(=O)[C@H](CO)NC(=O)CNC(=O)[C@H](CCCCN)NC(=O)[C@H](CCCNC(=N)N)NC(=O)[C@H](CC(C)C)NC(=O)[C@H](CCCNC(=N)N)NC(=O)[C@H](CCCNC(=N)N)NC(=O)[C@@H](N)Cc1ccccc1)C(=O)O [3102.0773] (H-FRRLRKGSI-OH) | 3
CC[C@H](C)[C@H](NC(=O)[C@H](CO)NC(=O)[C@@H](NC(=O)[C@H](CC(C)C)NC(=O)[C@H](CCCCN)NC(=O)[C@H](CCSC)NC(=O)[C@H](CCCCN)NC(=O)[C@@H](NC(=O)[C@@H](N)CO)[C@@H](C)CC)C(C)C)C(=O)O [3102.0585] (H-SIKMKLVSI-OH) | 16
CC[C@H](C)[C@H](NC(=O)[C@H](C)NC(=O)[C@H](CO)NC(=O)[C@H](Cc1ccccc1)NC(=O)[C@H](CCCCN)NC(=O)[C@H](CCCCN)NC(=O)[C@H](CO)NC(=O)[C@@H](NC(=O)[C@@H](N)CC(N)=O)[C@@H](C)CC)C(=O)O [3102.0717] (H-NISKKFSAI-OH) | 2.8
CC[C@H](C)[C@H](NC(=O)[C@H](Cc1ccccc1)NC(=O)[C@H](CC(C)C)NC(=O)[C@@H](NC(=O)[C@H](CC(C)C)NC(=O)[C@H](Cc1ccccc1)NC(=O)[C@@H]1CCCN1C(=O)[C@@H](NC(=O)[C@@H](N)CC(C)C)[C@@H](C)CC)[C@@H](C)CC)C(=O)O [3102.0791] (H-LIPFLILFI-OH) | 50
CSCC[C@H](NC(=O)[C@@H](N)CCCNC(=N)N)C(=O)N[C@@H](CCCNC(=N)N)C(=O)N[C@@H](Cc1ccccc1)C(=O)N[C@@H](CCCCN)C(=O)N[C@@H](CCCCN)C(=O)NCC(=O)N[C@@H](C)C(=O)N[C@H](C(=O)O)C(C)C [3102.0775] (H-RMRFKKGAV-OH) | 5.4
C[C@H](NC(=O)[C@H](Cc1ccccc1)NC(=O)[C@H](CO)NC(=O)[C@H](CS)NC(=O)[C@H](CCCNC(=N)N)NC(=O)[C@H](Cc1ccc(O)cc1)NC(=O)[C@H](CCCNC(=N)N)NC(=O)[C@H](CCCNC(=N)N)NC(=O)[C@@H](N)CO)C(=O)O [3102.0625] (H-SRRYRCSFA-OH) | 52
CC[C@H](C)[C@H](NC(=O)[C@H](Cc1c[nH]cn1)NC(=O)[C@H](CC(N)=O)NC(=O)[C@H](CCCCN)NC(=O)[C@H](CCCNC(=N)N)NC(=O)[C@H](Cc1ccccc1)NC(=O)[C@H](CCCNC(=N)N)NC(=O)[C@@H](NC(=O)[C@@H](N)Cc1ccc(O)cc1)[C@@H](C)CC)C(=O)O [3102.0888] (H-YIRFRKNHI-OH) | 1.4
CC(C)C[C@H](NC(=O)[C@H](CCCNC(=N)N)NC(=O)[C@H](Cc1c[nH]cn1)NC(=O)[C@H](CC(C)C)NC(=O)[C@H](Cc1ccc(O)cc1)NC(=O)[C@H](CCCNC(=N)N)NC(=O)[C@H](CCCNC(=N)N)NC(=O)[C@@H]1CCCN1C(=O)[C@@H](N)CS)C(=O)O [3102.0755] (H-CPRRYLHRL-OH) | 2.7
CC[C@H](C)[C@H](N)C(=O)N[C@@H](CO)C(=O)N[C@@H](CCC(=O)O)C(=O)N[C@@H](CO)C(=O)N[C@@H](CCCNC(=N)N)C(=O)N[C@@H](Cc1ccccc1)C(=O)N[C@@H](CCC(N)=O)C(=O)N[C@@H](CO)C(=O)N[C@@H](CC(C)C)C(=O)O [3102.0767] (H-ISESRFQSL-OH) | 40
CC(C)C[C@H](NC(=O)[C@@H]1CCCN1C(=O)[C@@H](N)CO)C(=O)N[C@@H](CO)C(=O)N[C@@H](CCCCN)C(=O)N[C@@H](CS)C(=O)N[C@H](C(=O)N[C@H](C(=O)N[C@H](C(=O)O)C(C)C)C(C)C)C(C)C [3102.0613] (H-SPLSKCVVV-OH) | 31
